Data published in ChEMBL document CHEMBL3137667, “[Drug-induced liver injury; fourteenth updated edition of the bibliographic database of liver injuries and related drugs]” (Gastroenterol Clin Biol, 2004).

How the values were obtained:
[1] = human
[2] = human; remark: listed apart in the source
[3] = Highest frequency of acute liver toxicity observed during clinical trials, expressed as a percentage. [column '% AIGUE' in source]; conditions: human
[4] = Presence of at least one case with successful reintroduction. [column 'REINT' in source]; conditions: human
[5] = human; remark: listed apart in the source
[6] = Times to onset, minimal and maximal, observed in the indexed observations. [column 'DELAI' in source]; conditions: human
[7] = human; remark: listed apart in the source
[8] = human, serum
[9] = Highest frequency of moderate liver toxicity observed during clinical trials, expressed as a percentage. [column '% BIOL' in source]; conditions: human
[10] = human; remark: listed apart in the source
[11] = human; remark: listed apart in the source
[12] = human, serum, 4383 h
[13] = human; remark: listed apart in the source
[14] = human; remark: listed apart in the source
[15] = human, serum; remark: listed apart in the source
[16] = human; remark: listed apart in the source
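Throughout, for Hepatotoxicity (association with vascular disease): count of indexed literature references reporting vascular liver injury in humans, e.g. peliosis hepatitis, hepatic veno-occlusive disease or Budd-Chiari syndrome.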
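Throughout, for Hepatotoxicity (benign tumour): value is a count of indexed literature references citing a benign tumour confirmed by histopathology.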
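Throughout, for Hepatotoxicity (choleostasis): human cholestatic liver injury, shown by histopathology or by peak ALT or AST elevation over alkaline phosphatase ratio below 2, value counts indexed literature reports.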
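Throughout, for Hepatotoxicity (chronic liver disease): chronic liver injury confirmed by histopathology or persistently raised serum aminotransferase activity beyond 6 months, value given as the count of indexed literature references.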
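Throughout, for Hepatotoxicity (cirrhosis): value is a count of indexed literature references reporting cirrhosis confirmed by histopathology.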
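Throughout, for Hepatotoxicity (cytolytic): human cytolytic liver injury, shown by histopathology or by a ratio above 5 of peak ALT or AST elevation to alkaline phosphatase elevation, value counts indexed references.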
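Throughout, for Hepatotoxicity (granulomatous hepatitis): value is a count of indexed literature references reporting granulomatous liver disease confirmed by histopathology.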
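Throughout, for Hepatotoxicity (malignant tumour): malignant tumour confirmed by histopathology, value gives the count of indexed literature references reporting it.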
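Throughout, for Hepatotoxicity (severe hepatitis): human clinical data: severe hepatitis, meaning potentially life-threatening liver failure or clinically observed cases, the value counts how many indexed literature references report it.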
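Throughout, for Hepatotoxicity (steatosis): steatosis confirmed by histopathology, value is the count of indexed references.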

Structure (SMILES)	Hepatotoxicity (granulomatous hepatitis) [1]	Hepatotoxicity (severe hepatitis) [2]	Hepatotoxicity (acute) [3] [%]	Hepatotoxicity (successful reintroduction) [4]	Hepatotoxicity (malignant tumour) [5]	Hepatotoxicity (time to onset) [6]	Hepatotoxicity (benign tumour) [7]	Hepatotoxicity (moderate) [8]	Hepatotoxicity (moderate) [9] [%]	Hepatotoxicity (cirrhosis) [10]	Hepatotoxicity (steatosis) [11]	Hepatotoxicity (chronic liver disease) [12]	Hepatotoxicity (cytolytic) [13]	Hepatotoxicity (association with vascular disease) [14]	Hepatotoxicity (acute) [15]	Hepatotoxicity (choleostasis) [16]	further results
O=C(CCCN1CCC(O)(c2ccc(Br)cc2)CC1)c1ccc(F)cc1 [BROMPERIDOL]	0	0	0	yes	0	2 weeks - 6 weeks	0	0	0	0	0	0	0	0	1	0	
Cc1ncsc1CCCl [CLOMETHIAZOLE]	0	2	0	yes	0	3 days - 40 days	0	1	0	0	0	0	3	0	3	1	
COc1ccc2c3c1O[C@H]1[C@@H](O)C=C[C@H]4[C@@H](C2)N(C)CC[C@@]341 [CODEINE]				yes	0	< 1 hour - 1.5 hours	0	2		0	0	0		0	3		Hepatotoxicity (granulomatous hepatitis) ([1]; Liver): 1; Hepatotoxicity (severe hepatitis) ([2]; Liver): 0; Hepatotoxicity (acute) ([3]; Liver): 0%; Hepatotoxicity (moderate) ([9]; Liver): 0%; Hepatotoxicity (cytolytic) ([13]; Liver): 2; Hepatotoxicity (choleostasis) ([16]; Liver): 0
CC(=O)Oc1ccc(C(=C2CCCCC2)c2ccc(OC(C)=O)cc2)cc1 [CYCLOFENIL]	1	0	1.3	yes	0	1 month - 5 months	0	8	55.6	0	0	0	3	1	5	2	
NCCS [CYSTEAMINE]	0	0	0	yes	0	2 weeks - 2 years	0	0	0	0	0	0	1	1	1	0	
CN(C)CC[C@@H](c1ccc(Cl)cc1)c1ccccn1 [DEXCHLORPHENIRAMINE]	0			yes	0	9 days	0	0		0	0	0	1	0	1	0	Hepatotoxicity (severe hepatitis) ([2]; Liver): 0; Hepatotoxicity (acute) ([3]; Liver): 0%; Hepatotoxicity (moderate) ([9]; Liver): 0%
CC[C@H](C)[C@H]1NC(=O)[C@@H](NC(=O)[C@@H](CC(C)C)N(C)C(=O)[C@@H]2CCCN2C(=O)C(C)O)[C@@H](C)OC(=O)[C@H](Cc2ccc(OC)cc2)N(C)C(=O)[C@@H]2CCCN2C(=O)[C@H](CC(C)C)NC(=O)[C@@H](C)C(=O)[C@H](C(C)C)OC(=O)C[C@@H]1O (stereo partly drawn) [DIDEMNIN B]	0	0	5.3	yes	0	1 week	0	3	32	0	0	0	0	0	2	1	
CCCCC(CC)COC(=O)CC(C(=O)OCC(CC)CCCC)S(=O)(=O)O (stereo not drawn) [DOCUSATE]	0	0	0	yes	0	2 days - 1 year	0	1	0	0	0	1	0	0	0	0	
C=C(CC)C(=O)c1ccc(OCC(=O)O)c(Cl)c1Cl [ETHACRYNIC ACID]	0	2	0	yes	0	2 weeks - 4 weeks	0	0	0	0	0	0	2	0	2	0	
O=C(O)CCC(=O)c1ccc(-c2ccccc2)cc1 [FENBUFEN]	0	0	0	yes	0	10 days - 2 weeks	0	7	25	0	0	0	1	0	5	2	
O=C1c2ccccc2C(=O)C1c1ccc(F)cc1 [FLUINDIONE]	0	0	0	yes	0	1 week - 3 months	0	0	0	0	0	0	5	0	7	1	
CC(C(=O)O)c1ccc(-c2ccccc2)c(F)c1 (stereo not drawn) [FLURBIPROFEN]	0	0	0	yes	0	1 day - 2 months	0	4	8.1	0	0	0	2	0	3	1	
C[C@@H]1O[C@@H]1P(=O)(O)O [FOSFOMYCIN]	0	0	0	yes	0	3 days - 4 days	0	8	23.8	0	0	0	1	0	1	0	
